Results as given in US20250367231A1, “MULTIFUNCTIONAL BIOADHESIVE DESIGNED WITH CHEMICAL FUNCTIONALITY INDUCED SUTURED BIOLOGICAL BUILDING BLOCKS” (The Regents of the University of California, priority 2022, published 2025).

Conditions: ambient conditions; for time to change in color (self-oxidation of catechol moieties): aqueous solution
Source text: Dopamine (Dopa), a naturally derived neurotransmitter molecule^[4], also resembles with the key moiety in mussel foot proteins (catechol)^[11] and has been intensely utilized to develop adhesive biomaterials with diverse clinical importance^[12]. In view of the biological relevance of multifunctional catecholic moieties, herein, Dopa skeleton was chemically modified with a nitro-group to modulate the electronic properties of the aromatic ring^[13] (FIG. 1a). To use the nitro incorporated dopamine (nDopa) moiety for designing functional biomaterials, it was further covalently conjugated with a methacrylate group through an amide linkage (FIG. 1a).

| time to change in color (self-oxidation of catechol moieties) | time without self-oxidation | Compound |
| --- | --- | --- |
| 1 h |  | NCCc1ccc(O)c(O)c1 [Dopa, dopamine] |
|  | > 7 days | C=C(C)C(=O)NCCc1cc(O)c(O)cc1[N+](=O)[O-] [nMAD, methacrylated nitro-dopamine] |
| 24 h |  | C=C(C)C(=O)NCCc1ccc(O)c(O)c1 [MAD, methacrylated dopamine] |
